According to the NIST ThermoML archive (doi:10.1021/acs.jced.9b00134):

How the values were obtained:
[1] = 293.15 K, 101.13 kPa, Vibrating tube method
[2] = refractive index (Na D-line) (dimensionless); xn = mol fraction of the nth substance listed; conditions: 101.13 kPa, Liquid, Standard Abbe refractometry, x1 = 0.5
[3] = xn = mol fraction of the nth substance listed; conditions: 101.13 kPa, Liquid, x1 = 0.5; for mass density: Vibrating tube method; for electrical conductivity: Alternating current cell with electrodes; for viscosity: Concentric cylinders viscometry

CCC(O)CO (stereo not given) [1,2-butanediol]
Conditions	mass density [kg/m3]
[1], Liquid	1000

OCCO [1,2-ethanediol]
Conditions	mass density [kg/m3]
[1], Liquid	1105

OCCCCCCO [1,6-hexanediol]
Conditions	mass density [kg/m3]
[1], Liquid	947

OCC(O)CO [glycerol]
Conditions	mass density [kg/m3]
[1], Liquid	1238

O=C([O-])[O-].[Na+].[Na+] [sodium carbonate]
Conditions	mass density [kg/m3]
[1], Crystal	2516

C[N+](C)(C)Cc1ccccc1.[Cl-] [trimethylbenzylammonium chloride]
Conditions	mass density [kg/m3]
[1], Crystal	1061

C[N+](C)(C)Cc1ccccc1.[Cl-] [trimethylbenzylammonium chloride] + CCC(O)CO
Conditions	electrical conductivity, [3] [S/m]	mass density, [3] [kg/m3]	refractive index, [2]	viscosity, [3] [mPa·s]
293 K	–	1104	1.4982	–
298 K	0.194	1093	1.4956	231.7
303 K	0.312	1083	1.4921	128.5
308 K	0.382	1073	1.4892	64.2
313 K	0.437	1064	1.4851	34.5
318 K	0.465	1057	1.4823	22.1
323 K	0.532	1049	1.4781	17.9

C[N+](C)(C)Cc1ccccc1.[Cl-] [trimethylbenzylammonium chloride] + OCC(O)CO
Conditions	electrical conductivity, [3] [S/m]	mass density, [3] [kg/m3]	refractive index, [2]	viscosity, [3] [mPa·s]
293 K	–	1170.3	1.5653	–
298 K	0.0688	1167.2	1.5612	383.9
303 K	0.115	1164.3	1.5587	159.6
308 K	0.123	1161.4	1.556	79.8
313 K	0.126	1158.4	1.5532	48.5
318 K	0.123	1155	1.5503	29.7
323 K	0.178	1152.4	1.5493	18.3

C[N+](C)(C)Cc1ccccc1.[Cl-] [trimethylbenzylammonium chloride] + OCCCCCCO
Conditions	electrical conductivity, [3] [S/m]	mass density, [3] [kg/m3]	refractive index, [2]	viscosity, [3] [mPa·s]
293 K	–	1142.3	1.5143	–
298 K	0.0842	1132.6	1.5107	298.3
303 K	0.145	1126.2	1.5083	143.6
308 K	0.17	1119.7	1.5052	72.9
313 K	0.184	1113.4	1.5016	38.7
318 K	0.195	1107.1	1.4987	23.5
323 K	0.253	1100	1.4963	16.8

C[N+](C)(C)Cc1ccccc1.[Cl-] [trimethylbenzylammonium chloride] + OCCO
Conditions	electrical conductivity, [3] [S/m]	mass density, [3] [kg/m3]	refractive index, [2]	viscosity, [3] [mPa·s]
293 K	–	1123.7	1.4806	–
298 K	0.539	1118	1.4763	137.3
303 K	0.706	1111.2	1.4731	96.5
308 K	0.843	1105.1	1.4695	54.6
313 K	0.902	1098	1.4652	28.9
318 K	0.965	1091	1.4611	20.7
323 K	1.02	1085	1.4587	14.2
